Experimental data taken from PubChem BioAssay (NCI).
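Results reflect a 48-hour exposure of cells in 96-well plates to compound at five concentrations. At the TGI there is no net growth.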

Experiments:
Test in all cases: growth of human tumour cells (NCI), 48 h
TK-10 renal = test system: TK-10 renal
RXF 393 renal = test system: RXF 393 renal
MCF7 breast = test system: MCF7 breast
ACHN renal = test system: ACHN renal
DU-145 prostate = test system: DU-145 prostate
SK-OV-3 ovarian = test system: SK-OV-3 ovarian
OVCAR-5 ovarian = test system: OVCAR-5 ovarian
KM12 colon = test system: KM12 colon
SW-620 colon = test system: SW-620 colon
MDA-MB-231 breast = test system: MDA-MB-231 breast
MDA-MB-435 = test system: MDA-MB-435
HCT-116 colon = test system: HCT-116 colon
BT-549 breast = test system: BT-549 breast
SNB-19 CNS = test system: SNB-19 CNS
HS 578T breast = test system: HS 578T breast
SF-539 CNS = test system: SF-539 CNS
A549 NSCLC = test system: A549 NSCLC
MDA-N = test system: MDA-N
IGROV1 ovarian = test system: IGROV1 ovarian
NCI-H460 lung = test system: NCI-H460 lung
HCC-2998 colon = test system: HCC-2998 colon
SR leukemia = test system: SR leukemia
HT29 colon = test system: HT29 colon
SN12C renal = test system: SN12C renal
OVCAR-8 ovarian = test system: OVCAR-8 ovarian
EKVX NSCLC = test system: EKVX NSCLC
CAKI-1 renal = test system: CAKI-1 renal
HCT-15 colon = test system: HCT-15 colon
M14 melanoma = test system: M14 melanoma
T-47D breast = test system: T-47D breast
SK-MEL-28 melanoma = test system: SK-MEL-28 melanoma
NCI/ADR-RES ovarian = test system: NCI/ADR-RES ovarian
NCI-H522 lung = test system: NCI-H522 lung
SF-295 CNS = test system: SF-295 CNS
NCI-H226 lung = test system: NCI-H226 lung
MALME-3M melanoma = test system: MALME-3M melanoma
UO-31 renal = test system: UO-31 renal
UACC-257 melanoma = test system: UACC-257 melanoma
A498 renal = test system: A498 renal
CCRF-CEM leukemia = test system: CCRF-CEM leukemia
SNB-75 CNS = test system: SNB-75 CNS
786-0 renal = test system: 786-0 renal
OVCAR-4 ovarian = test system: OVCAR-4 ovarian
COLO 205 colon = test system: COLO 205 colon
SK-MEL-5 melanoma = test system: SK-MEL-5 melanoma
MOLT-4 leukemia = test system: MOLT-4 leukemia
K-562 leukemia = test system: K-562 leukemia
HOP-92 NSCLC = test system: HOP-92 NSCLC
HL-60(TB) leukemia = test system: HL-60(TB) leukemia
RPMI-8226 leukemia = test system: RPMI-8226 leukemia
UACC-62 melanoma = test system: UACC-62 melanoma
NCI-H23 lung = test system: NCI-H23 lung
SF-268 CNS = test system: SF-268 CNS
LOX IMVI melanoma = test system: LOX IMVI melanoma
U251 CNS = test system: U251 CNS
SK-MEL-2 melanoma = test system: SK-MEL-2 melanoma
PC-3 prostate = test system: PC-3 prostate
HOP-62 NSCLC = test system: HOP-62 NSCLC
OVCAR-3 ovarian = test system: OVCAR-3 ovarian

Work on NNC(=O)c1ccccc1NC(=O)/C(=C/c1ccccc1O)NC(=O)c1ccccc1 yielded a TGI (TK-10 renal) greater than 100 µM, a TGI (RXF 393 renal) greater than 100 µM and a TGI (MCF7 breast) of 39.2 µM. For the same compound, the TGI (ACHN renal) was 32.7 µM, the TGI (DU-145 prostate) was greater than 100 µM and the TGI (SK-OV-3 ovarian) was greater than 100 µM. For the same compound, the TGI (OVCAR-5 ovarian) was greater than 100 µM, the TGI (KM12 colon) was greater than 100 µM and the TGI (SW-620 colon) was greater than 100 µM. The TGI (MDA-MB-231 breast) was greater than 100 µM, the TGI (MDA-MB-435) was greater than 100 µM and the TGI (HCT-116 colon) was greater than 100 µM. It also gave a TGI (BT-549 breast) greater than 100 µM, a TGI (SNB-19 CNS) of 79.7 µM and a TGI (HS 578T breast) of 39.3 µM. For the same compound, the TGI (SF-539 CNS) was 92.4 µM, the TGI (A549 NSCLC) was greater than 100 µM and the TGI (MDA-N) was greater than 100 µM. The TGI (IGROV1 ovarian) was greater than 100 µM, the TGI (NCI-H460 lung) was greater than 100 µM and the TGI (HCC-2998 colon) was greater than 100 µM. It also gave a TGI (SR leukemia) greater than 100 µM, a TGI (HT29 colon) greater than 100 µM and a TGI (SN12C renal) greater than 100 µM. The TGI (OVCAR-8 ovarian) was 37.7 µM, the TGI (EKVX NSCLC) was greater than 100 µM and the TGI (CAKI-1 renal) was 31.8 µM. For the same compound, the TGI (HCT-15 colon) was greater than 100 µM, the TGI (M14 melanoma) was greater than 100 µM and the TGI (T-47D breast) was greater than 100 µM. For the same compound, the TGI (SK-MEL-28 melanoma) was greater than 100 µM, the TGI (NCI/ADR-RES ovarian) was 50.8 µM and the TGI (NCI-H522 lung) was 47.4 µM. It also gave a TGI (SF-295 CNS) greater than 100 µM, a TGI (NCI-H226 lung) greater than 100 µM and a TGI (MALME-3M melanoma) greater than 100 µM. For the same compound, the TGI (UO-31 renal) was 24.2 µM, the TGI (UACC-257 melanoma) was greater than 100 µM and the TGI (A498 renal) was greater than 100 µM. It also gave a TGI (CCRF-CEM leukemia) greater than 100 µM, a TGI (SNB-75 CNS) of 25.9 µM and a TGI (786-0 renal) greater than 100 µM. It also gave a TGI (OVCAR-4 ovarian) greater than 100 µM, a TGI (COLO 205 colon) greater than 100 µM and a TGI (SK-MEL-5 melanoma) greater than 100 µM. The TGI (MOLT-4 leukemia) was greater than 100 µM, the TGI (K-562 leukemia) was greater than 100 µM and the TGI (HOP-92 NSCLC) was greater than 100 µM. It also gave a TGI (HL-60(TB) leukemia) greater than 100 µM, a TGI (RPMI-8226 leukemia) greater than 100 µM and a TGI (UACC-62 melanoma) greater than 100 µM. It also gave a TGI (NCI-H23 lung) greater than 100 µM, a TGI (SF-268 CNS) of 28.1 µM and a TGI (LOX IMVI melanoma) greater than 100 µM. It also gave a TGI (U251 CNS) greater than 100 µM.

With C=CC[N+]12CN3CN(CN(C3)C1)C2 the TGI (TK-10 renal) was 45.4 µM, the TGI (RXF 393 renal) was 38 µM and the TGI (MCF7 breast) was greater than 100 µM. The TGI (ACHN renal) was 46 µM, the TGI (DU-145 prostate) was 46.9 µM and the TGI (SK-OV-3 ovarian) was greater than 100 µM. It also gave a TGI (OVCAR-5 ovarian) of 95.5 µM, a TGI (KM12 colon) of 66.8 µM and a TGI (SW-620 colon) greater than 100 µM. For the same compound, the TGI (MDA-MB-231 breast) was 91.3 µM, the TGI (MDA-MB-435) was 37.4 µM and the TGI (HCT-116 colon) was 58.2 µM. It also gave a TGI (BT-549 breast) of 61.3 µM, a TGI (SNB-19 CNS) greater than 100 µM and a TGI (HS 578T breast) greater than 100 µM. It also gave a TGI (SF-539 CNS) of 40.6 µM, a TGI (A549 NSCLC) greater than 100 µM and a TGI (MDA-N) of 35.5 µM. For the same compound, the TGI (IGROV1 ovarian) was 66.4 µM, the TGI (NCI-H460 lung) was 54.7 µM and the TGI (HCC-2998 colon) was 55.8 µM. The TGI (SK-MEL-2 melanoma) was greater than 100 µM, the TGI (HT29 colon) was 42.8 µM and the TGI (SN12C renal) was 60.2 µM. It also gave a TGI (OVCAR-8 ovarian) of 57.6 µM, a TGI (EKVX NSCLC) of 46.4 µM and a TGI (CAKI-1 renal) of 37.1 µM. The TGI (HCT-15 colon) was 50.9 µM, the TGI (PC-3 prostate) was greater than 100 µM and the TGI (M14 melanoma) was 82.3 µM. The TGI (T-47D breast) was 76.5 µM, the TGI (SK-MEL-28 melanoma) was 55.5 µM and the TGI (NCI/ADR-RES ovarian) was 62.7 µM. It also gave a TGI (NCI-H522 lung) of 34.9 µM, a TGI (SF-295 CNS) greater than 100 µM and a TGI (MALME-3M melanoma) of 45.2 µM. The TGI (UO-31 renal) was 43.7 µM, the TGI (UACC-257 melanoma) was 61.7 µM and the TGI (A498 renal) was 94.1 µM. For the same compound, the TGI (CCRF-CEM leukemia) was 30.3 µM, the TGI (SNB-75 CNS) was 48.1 µM and the TGI (OVCAR-4 ovarian) was 52.9 µM. The TGI (COLO 205 colon) was 65.9 µM, the TGI (SK-MEL-5 melanoma) was greater than 100 µM and the TGI (MOLT-4 leukemia) was 57.5 µM. It also gave a TGI (K-562 leukemia) greater than 100 µM, a TGI (HOP-92 NSCLC) of 46.9 µM and a TGI (HL-60(TB) leukemia) greater than 100 µM. The TGI (RPMI-8226 leukemia) was 39 µM, the TGI (UACC-62 melanoma) was 80.2 µM and the TGI (HOP-62 NSCLC) was greater than 100 µM. For the same compound, the TGI (NCI-H23 lung) was 52.8 µM, the TGI (OVCAR-3 ovarian) was greater than 100 µM and the TGI (SF-268 CNS) was 72.3 µM. The TGI (LOX IMVI melanoma) was 83 µM and the TGI (U251 CNS) was greater than 100 µM.
